Literature values in patent publication US11576924B2, “Compounds for the prevention and treatment of diseases and the use thereof” (Galectin Sciences, LLC, priority 2017, dated 2023).

Tests used:
lung fibrosis = details: pulmonary administration (intra-tracheal instillation or nebulizers)
galectin 3 = galectin 3 (Homo sapiens, UniProt P17931)
Sequence of galectin 3 (P17931 whole entry, species assumed): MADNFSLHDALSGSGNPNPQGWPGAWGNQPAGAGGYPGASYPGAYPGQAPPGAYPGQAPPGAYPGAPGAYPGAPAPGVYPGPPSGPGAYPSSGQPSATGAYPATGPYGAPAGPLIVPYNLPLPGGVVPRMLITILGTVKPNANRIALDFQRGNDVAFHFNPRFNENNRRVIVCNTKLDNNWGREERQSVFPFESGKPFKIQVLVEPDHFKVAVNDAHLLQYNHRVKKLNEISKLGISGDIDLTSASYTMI

- binding to galectin 3 (galectin 3): bind to galectin 3
Structure (SMILES): OC[C@H]1O[C@@H](S[C@@H]2O[C@H](CO)[C@H](O)[C@H](n3cc(-c4cccc(F)c4)nn3)[C@H]2O)[C@H](O)[C@@H](n2cc(-c3cccc(F)c3)nn2)[C@H]1O [TD-139]
- efficacy in mouse model of lung fibrosis (lung fibrosis): effective in a mouse model of lung fibrosis
